{"source": "ChEMBL document CHEMBL1275334", "about": "“5-Piperazinyl-3-sulfonylindazoles as potent and selective 5-hydroxytryptamine-6 antagonists” (J Med Chem, 2010)", "key": {"[1]": {"biological_target": "T1, 5-hydroxytryptamine receptor 6 (Homo sapiens, UniProt P50406)", "T1 sequence (P50406 whole entry)": "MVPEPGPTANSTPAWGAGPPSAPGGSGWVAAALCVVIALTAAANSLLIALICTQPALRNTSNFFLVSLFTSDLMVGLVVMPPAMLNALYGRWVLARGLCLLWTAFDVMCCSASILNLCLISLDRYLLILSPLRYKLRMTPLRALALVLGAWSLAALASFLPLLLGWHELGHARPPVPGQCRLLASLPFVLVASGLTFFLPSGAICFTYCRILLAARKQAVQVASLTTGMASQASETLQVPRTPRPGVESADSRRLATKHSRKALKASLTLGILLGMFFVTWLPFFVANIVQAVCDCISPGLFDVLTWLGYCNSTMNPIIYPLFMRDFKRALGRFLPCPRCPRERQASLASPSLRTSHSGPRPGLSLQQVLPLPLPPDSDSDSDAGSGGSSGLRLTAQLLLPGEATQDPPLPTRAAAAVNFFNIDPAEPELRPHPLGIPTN", "experiment": "Antagonist activity at human cloned 5HT6 receptor expressed in human HeLa cells by cyclase assay", "type": "functional, cell-based"}, "[2]": {"biological_target": "T1, 5-hydroxytryptamine receptor 6", "experiment": "Antagonist activity at human cloned 5HT6 receptor expressed in human HeLa cells by cyclase assay relative to control", "type": "functional, cell-based"}, "[3]": {"biological_target": "T2, 5-hydroxytryptamine receptor 1A (Homo sapiens, UniProt P08908)", "T2 sequence (P08908 whole entry)": "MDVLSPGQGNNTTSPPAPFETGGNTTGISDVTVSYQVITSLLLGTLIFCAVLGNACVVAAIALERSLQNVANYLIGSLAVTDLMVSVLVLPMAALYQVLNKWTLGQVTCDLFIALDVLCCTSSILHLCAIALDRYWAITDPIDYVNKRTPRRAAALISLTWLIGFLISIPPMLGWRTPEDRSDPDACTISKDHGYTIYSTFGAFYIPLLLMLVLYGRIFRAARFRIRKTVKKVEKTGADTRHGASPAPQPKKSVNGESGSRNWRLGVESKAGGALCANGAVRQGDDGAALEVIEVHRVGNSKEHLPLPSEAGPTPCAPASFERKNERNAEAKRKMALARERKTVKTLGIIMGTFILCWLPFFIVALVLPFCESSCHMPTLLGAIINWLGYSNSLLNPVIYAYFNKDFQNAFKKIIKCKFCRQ", "experiment": "Displacement of [3H]LSD from human cloned 5HT1A receptor expressed in human HeLa cells", "type": "cell-based"}, "[4]": {"biological_target": "5-hydroxytryptamine receptor 1B (Homo sapiens, UniProt P28222)", "sequence (P28222 whole entry)": "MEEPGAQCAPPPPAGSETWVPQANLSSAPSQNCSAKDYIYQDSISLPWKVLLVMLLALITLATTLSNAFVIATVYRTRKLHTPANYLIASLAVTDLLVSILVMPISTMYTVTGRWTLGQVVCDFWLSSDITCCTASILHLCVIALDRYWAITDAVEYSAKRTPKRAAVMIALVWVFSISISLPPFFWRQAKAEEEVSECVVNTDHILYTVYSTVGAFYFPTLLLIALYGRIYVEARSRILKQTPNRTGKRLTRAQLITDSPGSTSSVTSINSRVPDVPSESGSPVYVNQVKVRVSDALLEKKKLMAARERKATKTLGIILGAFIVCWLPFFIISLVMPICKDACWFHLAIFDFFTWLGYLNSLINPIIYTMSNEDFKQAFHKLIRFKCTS", "experiment": "Displacement of [3H]LSD from human cloned 5HT1B receptor expressed in human HeLa cells", "type": "cell-based"}, "[5]": {"biological_target": "5-hydroxytryptamine receptor 1D (Homo sapiens, UniProt P28221)", "sequence (P28221 whole entry)": "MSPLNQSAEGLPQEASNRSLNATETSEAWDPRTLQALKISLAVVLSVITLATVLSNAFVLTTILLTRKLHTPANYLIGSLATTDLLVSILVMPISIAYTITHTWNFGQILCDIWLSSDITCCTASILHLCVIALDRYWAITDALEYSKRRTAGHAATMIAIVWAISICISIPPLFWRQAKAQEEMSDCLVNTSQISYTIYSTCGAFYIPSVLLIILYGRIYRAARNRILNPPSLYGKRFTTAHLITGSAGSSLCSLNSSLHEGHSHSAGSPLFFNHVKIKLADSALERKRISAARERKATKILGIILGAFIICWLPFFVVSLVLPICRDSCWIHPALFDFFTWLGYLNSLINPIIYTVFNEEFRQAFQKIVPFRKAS", "experiment": "Displacement of [3H]LSD from human cloned 5HT1D receptor expressed in human HeLa cells", "type": "cell-based"}, "[6]": {"biological_target": "T3, 5-hydroxytryptamine receptor 2B (Homo sapiens, UniProt P41595)", "T3 sequence (P41595 whole entry)": "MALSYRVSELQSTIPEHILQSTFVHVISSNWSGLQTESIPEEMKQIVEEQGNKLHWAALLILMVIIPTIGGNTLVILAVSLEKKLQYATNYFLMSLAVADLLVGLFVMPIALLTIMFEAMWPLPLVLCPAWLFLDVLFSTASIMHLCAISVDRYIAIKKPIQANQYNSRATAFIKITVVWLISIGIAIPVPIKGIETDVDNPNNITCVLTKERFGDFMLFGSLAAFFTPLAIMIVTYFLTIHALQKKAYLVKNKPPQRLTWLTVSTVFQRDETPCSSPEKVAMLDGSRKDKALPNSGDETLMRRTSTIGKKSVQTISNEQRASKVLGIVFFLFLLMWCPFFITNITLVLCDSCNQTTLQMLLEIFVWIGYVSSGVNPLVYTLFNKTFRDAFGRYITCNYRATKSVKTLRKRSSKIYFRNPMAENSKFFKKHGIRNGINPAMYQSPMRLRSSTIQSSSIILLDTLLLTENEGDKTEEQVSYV", "experiment": "Displacement of [3H]LSD from human cloned 5HT2B receptor expressed in human HeLa cells", "type": "cell-based"}, "[7]": {"biological_target": "T4, 5-hydroxytryptamine receptor 2C (Homo sapiens, UniProt P28335)", "T4 sequence (P28335 whole entry)": "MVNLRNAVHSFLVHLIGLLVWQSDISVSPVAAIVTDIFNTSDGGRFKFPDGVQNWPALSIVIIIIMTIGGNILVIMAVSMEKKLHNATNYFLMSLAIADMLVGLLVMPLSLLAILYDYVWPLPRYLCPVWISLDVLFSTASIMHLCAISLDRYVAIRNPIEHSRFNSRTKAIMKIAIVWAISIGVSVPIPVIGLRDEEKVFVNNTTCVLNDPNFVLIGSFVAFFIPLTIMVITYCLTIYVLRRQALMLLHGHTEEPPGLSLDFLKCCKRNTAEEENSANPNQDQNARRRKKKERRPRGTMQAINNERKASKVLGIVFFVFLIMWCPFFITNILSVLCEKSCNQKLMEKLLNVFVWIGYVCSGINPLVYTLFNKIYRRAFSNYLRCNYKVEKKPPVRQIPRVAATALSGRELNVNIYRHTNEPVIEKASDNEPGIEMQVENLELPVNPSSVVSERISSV", "experiment": "Displacement of [3H]LSD from human cloned 5HT2C receptor expressed in human HeLa cells", "type": "cell-based"}, "[8]": {"biological_target": "5-hydroxytryptamine receptor 7 (Homo sapiens, UniProt P34969)", "sequence (P34969 whole entry)": "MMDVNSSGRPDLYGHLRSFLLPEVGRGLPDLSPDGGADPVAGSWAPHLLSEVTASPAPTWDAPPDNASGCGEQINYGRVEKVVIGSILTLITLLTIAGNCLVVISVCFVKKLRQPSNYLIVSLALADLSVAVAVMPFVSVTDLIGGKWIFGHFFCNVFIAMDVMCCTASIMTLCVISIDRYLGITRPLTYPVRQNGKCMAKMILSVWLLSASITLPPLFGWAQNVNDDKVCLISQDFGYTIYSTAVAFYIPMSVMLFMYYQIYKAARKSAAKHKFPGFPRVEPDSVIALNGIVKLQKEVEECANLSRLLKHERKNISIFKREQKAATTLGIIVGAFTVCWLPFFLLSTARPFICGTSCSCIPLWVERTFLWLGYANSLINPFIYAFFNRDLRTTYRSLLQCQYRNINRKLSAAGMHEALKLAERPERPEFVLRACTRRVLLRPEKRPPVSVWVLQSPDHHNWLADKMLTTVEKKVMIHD", "experiment": "Displacement of [3H]LSD from human cloned 5HT7 receptor expressed in human HeLa cells", "type": "cell-based"}, "[9]": {"biological_target": "T5, Alpha-2A adrenergic receptor (Homo sapiens, UniProt P08913)", "T5 sequence (P08913 whole entry)": "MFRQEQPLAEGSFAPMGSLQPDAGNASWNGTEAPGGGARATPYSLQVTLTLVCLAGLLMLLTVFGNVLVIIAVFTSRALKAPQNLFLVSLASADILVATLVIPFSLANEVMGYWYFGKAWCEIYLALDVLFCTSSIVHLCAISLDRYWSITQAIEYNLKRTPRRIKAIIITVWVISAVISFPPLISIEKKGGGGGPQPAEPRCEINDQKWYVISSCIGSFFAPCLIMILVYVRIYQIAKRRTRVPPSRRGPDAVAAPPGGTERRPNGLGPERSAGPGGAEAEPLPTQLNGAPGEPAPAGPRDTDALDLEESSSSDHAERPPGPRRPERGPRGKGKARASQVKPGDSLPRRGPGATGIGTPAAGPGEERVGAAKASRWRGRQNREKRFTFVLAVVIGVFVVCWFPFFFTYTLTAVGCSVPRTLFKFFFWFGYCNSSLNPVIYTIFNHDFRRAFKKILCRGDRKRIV", "experiment": "Displacement of [3H]LSD from human cloned alpha2A adrenergic receptor expressed in human HeLa cells", "type": "cell-based"}, "D(2) dopamine receptor": {"biological_target": "D(2) dopamine receptor (Homo sapiens, UniProt P14416)", "sequence (P14416 whole entry)": "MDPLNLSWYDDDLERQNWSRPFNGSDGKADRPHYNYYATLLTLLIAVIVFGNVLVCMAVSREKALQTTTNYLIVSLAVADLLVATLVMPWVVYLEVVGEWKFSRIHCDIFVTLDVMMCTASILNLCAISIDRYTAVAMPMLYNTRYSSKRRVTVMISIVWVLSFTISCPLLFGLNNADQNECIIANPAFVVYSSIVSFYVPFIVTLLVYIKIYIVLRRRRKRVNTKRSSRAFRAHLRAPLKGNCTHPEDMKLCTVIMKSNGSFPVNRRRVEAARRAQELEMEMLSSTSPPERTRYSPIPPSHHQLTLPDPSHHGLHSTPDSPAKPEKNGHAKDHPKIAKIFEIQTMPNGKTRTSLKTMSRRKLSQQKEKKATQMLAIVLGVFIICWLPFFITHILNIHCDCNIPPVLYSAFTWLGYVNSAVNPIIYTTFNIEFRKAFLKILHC", "experiment": "Displacement of [3H]LSD from human cloned dopamine D2 receptor expressed in human HeLa cells", "type": "cell-based"}, "[10]": {"biological_target": "T3, 5-hydroxytryptamine receptor 2B", "experiment": "Agonist activity at human recombinant 5HT2B receptor expressed in CHOK1 cells at 0.0001 to 10 uM by FLIPR assay", "type": "functional, cell-based", "details": "CHO-K1"}, "[11]": {"experiment": "Oral bioavailability in rat at 10 mg/kg", "type": "ADME, organism-based", "details": "in vivo"}, "[12]": {"experiment": "Oral bioavailability in dog at 10 mg/kg", "type": "ADME, organism-based, Canis lupus familiaris", "details": "in vivo"}, "[13]": {"experiment": "Ratio of drug level in brain to plasma in rat at 10 mg/kg, po", "type": "ADME, organism-based", "set-up": "dose 10 mg/kg, route oral", "details": "read-out: BPR"}, "[14]": {"experiment": "Ratio of drug level in brain to plasma in dog at 10 mg/kg, po", "type": "ADME, organism-based, Canis lupus familiaris", "set-up": "dose 10 mg/kg, route oral", "details": "read-out: BPR"}, "[15]": {"experiment": "Solubility of the compound in water", "type": "physicochemical"}, "[16]": {"experiment": "Protein binding in rat brain at 10 mg/kg, po", "type": "ADME, organism-based", "set-up": "dose 10 mg/kg, route oral", "details": "read-out: PPB (converted)"}, "[17]": {"experiment": "Plasma protein binding in rat at 10 mg/kg, po", "type": "ADME, organism-based", "set-up": "dose 10 mg/kg, route oral", "details": "read-out: PPB (converted)"}, "Rattus norvegicus [18]": {"tested_on": "Rattus norvegicus", "experiment": "Inhibition of scopolamine-induced memory deficit in po dosed rat by novel object recognition test", "type": "functional", "details": "read-out: MED"}, "Rattus norvegicus [19]": {"tested_on": "Rattus norvegicus", "experiment": "Enhancement of memory in po dosed rat measured after 48 hrs delay by novel object recognition test", "type": "functional, organism-based"}, "Rattus norvegicus [20]": {"tested_on": "Rattus norvegicus", "experiment": "Enhancement of memory in po dosed rat assessed as minimum effective dose measured after 48 hrs delay by novel object recognition test", "type": "functional", "details": "read-out: MED"}, "Rattus norvegicus [21]": {"tested_on": "Rattus norvegicus", "experiment": "Induction of acetylcholine release in hippocampus of rat at 10 mg/kg, po", "type": "functional, organism-based", "set-up": "dose 10 mg/kg"}, "Rattus norvegicus [22]": {"tested_on": "Rattus norvegicus", "experiment": "Induction of glutamate release in hippocampus of rat at 10 mg/kg, po", "type": "functional, organism-based", "set-up": "dose 10 mg/kg"}}, "note": "Active and inactive are the calls of the source. No cut-off for these calls is given here."}
{"molecule": "O=S(=O)(c1cccc2ccccc12)c1n[nH]c2ccc(N3CCNCC3)cc12", "values": [{"measurement": "IC50", "setting": "[1]", "result": 13, "unit": "nM"}, {"measurement": "Imax", "setting": "[2]", "result": 100, "unit": "%"}, {"measurement": "Ki", "setting": "[3]", "result": 573, "unit": "nM"}, {"measurement": "Ki", "setting": "[4]", "result": "> 5000", "unit": "nM"}, {"measurement": "Ki", "setting": "[5]", "result": "> 5000", "unit": "nM"}, {"measurement": "Ki", "setting": "[6]", "result": 236, "unit": "nM"}, {"measurement": "Ki", "setting": "[7]", "result": "> 5000", "unit": "nM"}, {"measurement": "Ki", "setting": "[8]", "result": 1560, "unit": "nM"}, {"measurement": "Ki", "setting": "[9]", "result": "> 5000", "unit": "nM"}, {"measurement": "Ki", "setting": "D(2) dopamine receptor", "result": "> 5000", "unit": "nM"}, {"measurement": "Activity", "setting": "[10]", "result": "inactive"}, {"measurement": "bioavailability", "setting": "[11]", "result": "> 20", "unit": "%"}, {"measurement": "bioavailability", "setting": "[12]", "result": "> 20", "unit": "%"}, {"measurement": "Kp", "setting": "[13]", "result": "< 0.2"}, {"measurement": "Kp", "setting": "[14]", "result": "< 0.2"}, {"measurement": "solubility", "setting": "[15]", "result": "> 100", "unit": "µg/mL"}, {"measurement": "fraction unbound", "setting": "[16]", "result": 0.2}, {"measurement": "fraction unbound", "setting": "[17]", "result": 0.2}, {"measurement": "minimal effective dose", "setting": "Rattus norvegicus [18]", "result": 0.03, "unit": "mg/kg"}, {"measurement": "Activity", "setting": "Rattus norvegicus [19]", "result": "Dose-dependent effect"}, {"measurement": "minimal effective dose", "setting": "Rattus norvegicus [20]", "result": 3, "unit": "mg/kg"}, {"measurement": "Activity", "setting": "Rattus norvegicus [21]", "result": "Active"}, {"measurement": "Activity", "setting": "Rattus norvegicus [22]", "result": "Active"}]}
